Like-named read-outs stand apart in the source and are kept apart here.
Tests used:
Assay in all cases: microbe, parasite or virus in culture
Type in all cases: cell-based
[1] = tested on: HCV 3a RLuc cells (NS5A chimeric genotype 1b Con1 replicon with consensus genotype 3a NS5A gene); conditions: Hepatitis C virus
Procedure: (§1) Evaluation of cell-based anti-HCV activity: Antiviral potency (EC50) was determined using a Renilla luciferase (RLuc)-based HCV replicon reporter assay. To perform the assay for genotype 1 and 2a JFH-1, HCV 1b RLuc cells (harboring a dicistronic genotype 1b Con1 replicon that encodes a RLuc reporter), or HCV 1a RLuc cells (harboring a dicistronic genotype 1a H77 replicon that encodes a RLuc reporter), or HCV 2a JFH-1 Rluc cells (harboring a dicistronic genotype 2a JFH-1 replicon that encodes a RLuc reporter) were dispensed into 384-well plates. To perform the assay for genotype 2a (with M31 present) or 2b, HCV 2a Rluc or 2b Rluc cells (both with M31 present) harboring a dicistronic NS5A chimeric genotype 2a JFH-1 replicon that encodes a RLuc reporter and either genotype 2a J6 strain NS5A gene or genotype 2b MD2b-1 NS5A gene (based on Los Alamos HCV database isolates, both with M31 present) respectively, were dispensed into 384-well plates. To perform the assay for genotype 3 and 4, HCV 3a RLuc or 4a Rluc cells harboring a dicistronic NS5A chimeric genotype 1b Con1 replicon that encodes a RLuc reporter and either a consensus genotype 3a NS5A gene or genotype 4a NS5A gene (based on Los Alamos HCV database isolates) respectively, were dispensed into 384-well plates. Compounds were re-suspended in DMSO at a concentration of 10 mM and serially diluted in DMSO either manually or using an automated pipeting instrument. Serially diluted compounds were mixed with cell culture media and added to the seeded cells. […] 72 hours later, cells were lysed and Renilla luciferase activity quantified as recommended by the manufacturer (Promega-Madison, Wis.). Non-linear regression was performed to calculate EC50 values.

[2] = tested on: HCV 2a JFH-1 Rluc cells (dicistronic genotype 2a JFH-1 replicon, RLuc reporter); conditions: genotype 2a JFH-1 replicon, read-out: 2a JFH
Procedure: as §1

[3] = tested on: HCV 1b RLuc cells (dicistronic genotype 1b Con1 replicon, RLuc reporter)
Procedure: as §1

[4] = tested on: HCV 1a RLuc cells (dicistronic genotype 1a H77 replicon, RLuc reporter); conditions: genotype 1a H77 replicon, read-out: 1a
Procedure: as §1

[5] = read-out: 3a, genotype 3a NS5A chimeric 1b Con1 replicon
[6] = Hepatitis C virus, RLuc reporter
[7] = Hepatitis C virus, read-out: 1b (nM)
[8] = read-out: 3a, Table 2, genotype 3a NS5A chimeric replicon
[9] = Hepatitis C virus, 72 h, Table 2, 72 hours
[10] = Hepatitis C virus, 72 h, read-out: 1b (nM)

SMILES	EC50 [1, 5] [nM]	EC50 [2, 6] [nM]	EC50 [3, 7] [nM]	EC50 [4, 6] [nM]	EC50 [1, 8] [nM]	EC50 [2, 9] [nM]	EC50 [3, 10] [nM]	EC50 [4, 9] [nM]	EC50 ([2]; RLuc reporter) [nM]	EC50 ([3]; read-out: 1b) [nM]	EC50 ([4]; RLuc reporter) [nM]
COC(=O)N[C@H](C(=O)N1CCC[C@H]1c1ncc(-c2ccc3cc(-c4ccc(-c5cnc([C@@H]6CCCN6C(=O)[C@H](NC(=O)OC)c6cccnc6)[nH]5)cc4)ccc3c2)[nH]1)C(C)C [Example 161]	0.001 to 0.99	0.001 to 0.999	0.019	0.001 to 0.999	–	–	–	–	–	–	–
CCO[C@H]1C[C@@H](c2ncc(-c3ccc(-c4ccc5cc(-c6cnc([C@@H]7CCCN7C(=O)[C@@H](NC(=O)OC)C(C)C)[nH]6)ccc5c4)cc3)[nH]2)N(C(=O)[C@@H](c2ccccc2)N(C)C)C1 [Example 158]	0.001 to 0.99	0.001 to 0.999	0.01	0.001 to 0.999	–	–	–	–	–	–	–
COC(=O)N[C@H](C(=O)N1[C@@H]2CC[C@@H](C2)[C@H]1c1ncc(-c2ccc(-c3ccc4cc(-c5cnc([C@@H]6CC7(CC7)CN6C(=O)C(c6ccccc6)N6CCOCC6)[nH]5)ccc4c3)cc2)[nH]1)C(C)C (stereo partly shown) [Example 28]	–	–	–	–	0.001 to 0.99	1 to 44	0.023	1 to 44	–	–	–
COC(=O)N[C@H](C(=O)N1CCC[C@H]1c1ncc(-c2ccc3c(c2)CCc2cc(-c4ccc5nc([C@@H]6CCCN6C(=O)[C@H](NC(=O)OC)c6ccccc6)[nH]c5c4)ccc2-3)[nH]1)C(C)C [Example 189]	0.001 to 0.99	0.001 to 0.999	0.006	0.001 to 0.999	–	–	–	–	–	–	–
COC(=O)N[C@H](C(=O)N1C[C@H](C)C[C@H]1c1ncc(-c2ccc(-c3ccc4cc(-c5cnc([C@@H]6C[C@H](C#N)CN6C(=O)[C@H](NC(=O)OC)c6ccccc6)[nH]5)ccc4c3)cc2)[nH]1)C(C)C [Example 113]	0.001 to 0.99	0.001 to 0.999	0.014	0.001 to 0.999	–	–	–	–	–	–	–
COC(=O)N[C@H](C(=O)N1CCC[C@H]1c1ncc(-c2ccc(-c3ccc4cc(-c5cnc([C@@H]6CCCN6C(=O)[C@@H](NC(=O)OC)C(C)C)[nH]5)ccc4c3)cc2)[nH]1)c1ccccc1OC [Example 105]	1 to 4.99	1 to 44	0.042	1 to 44	–	–	–	–	–	–	–
COC(=O)N[C@H](C(=O)N1CCC[C@H]1c1ncc(-c2ccc3cc(-c4ccc(-c5cnc([C@@H]6CC(=O)CN6C(=O)[C@@H](c6ccccc6)N(C)C)[nH]5)cc4)ccc3c2)[nH]1)C(C)C [Example 34]	–	–	–	–	0.001 to 0.99	0.001 to 0.999	0.018	0.001 to 0.999	–	–	–
COC(=O)NC(C(=O)N1CCC[C@H]1c1ncc(-c2ccc(-c3ccc4cc(-c5cnc([C@@H]6CCCN6C(=O)[C@@H](NC(=O)OC)C(C)C)[nH]5)ccc4c3)cc2)[nH]1)c1cccc(C(F)(F)F)c1 (stereo partly shown) [Example 146]	> 5	1 to 44	0.048	1 to 44	–	–	–	–	–	–	–
COC(=O)N[C@@H](CC1CCOCC1)C(=O)N1CCC[C@H]1c1ncc(-c2ccc3cc(-c4ccc(-c5cnc([C@@H]6CCCN6C(=O)[C@H](NC(=O)OC)c6ccccc6)[nH]5)cc4)ccc3c2)[nH]1 [Example 213]	0.001 to 0.99	0.001 to 0.999	0.03	0.001 to 0.999	–	–	–	–	–	–	–
CCN(CC)[C@@H](C(=O)N1CCC[C@H]1c1ncc(-c2ccc(-c3ccc4cc(-c5cnc([C@@H]6CCCN6C(=O)[C@@H](NC(=O)OC)C6CCOCC6)[nH]5)ccc4c3)cc2)[nH]1)c1ccccc1 [Example 171]	0.001 to 0.99	0.001 to 0.999	0.026	0.001 to 0.999	–	–	–	–	–	–	–
COC(=O)N[C@H](C(=O)N1CCC[C@H]1c1ncc(-c2ccc3cc(-c4ccc(-c5cnc([C@]6(F)CCCN6C(=O)[C@H]6c7ccccc7CCN6C)[nH]5)cc4)ccc3c2)[nH]1)C(C)C [Example 152]	1 to 4.99	> 44	0.751	> 44	–	–	–	–	–	–	–
COC(=O)N[C@H](C(=O)N1CCC[C@H]1c1ncc(-c2ccc3cc(-c4ccc(-c5cnc([C@@H]6C[C@H](C)CN6C(=O)[C@H](NC(=O)OC)c6ccccc6)[nH]5)cc4)ccc3c2)[nH]1)C(C)C [Example 130]	0.001 to 0.99	0.001 to 0.999	0.006	0.001 to 0.999	–	–	–	–	–	–	–
COC(=O)N[C@H](C(=O)N1CCC[C@H]1c1ncc(-c2ccc3cc(-c4ccc(-c5cnc([C@@H]6CCCN6C(=O)[C@H](NC(=O)OC)c6cccc(PC)c6)[nH]5)cc4)ccc3c2)[nH]1)C(C)C (stereo partly shown) [Example 185]	0.001 to 0.99	0.001 to 0.999	0.008	1 to 44	–	–	–	–	–	–	–
COC(=O)N[C@H](C(=O)N1C[C@@H](C#N)C[C@H]1c1nc2ccc(-c3ccc(-c4ccc5c(c4)CCc4nc([C@@H]6CCCN6C(=O)[C@H](NC(=O)OC)c6ccccc6)[nH]c4-5)cc3)cc2[nH]1)C1CCOCC1 [Example 167]	0.001 to 0.99	0.001 to 0.999	0.048	0.001 to 0.999	–	–	–	–	–	–	–
COC(=O)NC(C(=O)N1CCC[C@H]1c1ncc(-c2ccc3c(c2)C(F)(F)c2cc(-c4ccc(-c5cnc([C@@H]6CCCN6C(=O)[C@H](NC(=O)OC)c6ccccc6)[nH]5)cc4)ccc2-3)[nH]1)C(C)C (stereo partly shown) [Example 194]	1 to 4.99	1 to 44	0.01	1 to 44	–	–	–	–	–	–	–
COC(=O)NC(C(=O)N1CCC[C@H]1c1ncc(-c2ccc(-c3ccc4cc(-c5cnc([C@@H]6CCCN6C(=O)[C@@H](NC(=O)OC)C(C)C)[nH]5)ccc4c3)cc2)[nH]1)c1ccc(Cl)cc1 (stereo partly shown) [Example 107]	1 to 4.99	1 to 44	0.024	1 to 44	–	–	–	–	–	–	–
CCC(=O)N[C@@H](C(=O)N1CCC[C@H]1c1ncc(-c2ccc(-c3ccc4cc(-c5cnc([C@@H]6CCCN6C(=O)[C@@H](NC(=O)OC)C(C)C)[nH]5)ccc4c3)cc2)[nH]1)c1ccccc1 [Example 187]	0.001 to 0.99	0.001 to 0.999	0.007	0.001 to 0.999	–	–	–	–	–	–	–
COC(=O)N[C@H](C(=O)N1[C@@H]2CC[C@@H](C2)[C@H]1c1ncc(-c2ccc(-c3ccc4c(ccc5nc([C@@H]6CCCN6C(=O)[C@@H](NC(=O)OC)C6CCOCC6)[nH]c54)c3)cc2)[nH]1)C(C)C [Example 82]	–	–	–	–	0.001 to 0.99	0.001 to 0.999	0.042	0.001 to 0.999	–	–	–
COC(=O)N[C@H](C(=O)N1CCC[C@H]1c1ncc(-c2ccc3cc(-c4ccc(-c5cnc([C@@H]6CCCN6C(=O)[C@H](NC(=O)OC)c6ccc(OC)cc6)[nH]5)cc4)ccc3c2)[nH]1)C(C)C [Example 109]	> 5	> 44	1.6	1 to 44	–	–	–	–	–	–	–
COC(=O)N[C@H](C(=O)N1CCC[C@H]1c1ncc(-c2ccc3cc(-c4ccc(-c5cnc([C@@H]6C[C@H](C#N)CN6C(=O)[C@H](NC(=O)OC)c6ccccc6)[nH]5)cc4)ccc3c2)[nH]1)C(C)C [Example 124]	0.001 to 0.99	0.001 to 0.999	0.011	0.001 to 0.999	–	–	–	–	–	–	–
COC(=O)NC(C(=O)N1CCC[C@@]1(F)c1ncc(-c2ccc(-c3ccc4cc(-c5cnc([C@@H]6CCCN6C(=O)[C@@H](NC(=O)OC)C(C)C)[nH]5)ccc4c3)cc2)[nH]1)c1ccc2c(c1)OCO2 (stereo partly shown) [Example 143]	> 5	1 to 44	0.025	0.001 to 0.999	–	–	–	–	–	–	–
COC(=O)N[C@H](C(=O)N1CCC[C@H]1c1nc2c([nH]1)-c1ccc(-c3ccc4cc(-c5cnc([C@@H]6CCCN6C(=O)[C@H](NC(=O)OC)c6ccccc6)[nH]5)ccc4c3)cc1CC2)C1CCOCC1 [Example 174]	0.001 to 0.99	–	–	–	–	–	–	–	0.001 to 0.999	0.015	0.001 to 0.999
COC(=O)N[C@H](C(=O)N1CCC[C@H]1c1ncc(-c2ccc3cc(-c4ccc5c(c4)CCc4nc([C@@H]6CCCN6C(=O)[C@H](NC(=O)OC)c6ccccc6)[nH]c4-5)ccc3c2)[nH]1)C(C)C [Example 142]	0.001 to 0.99	0.001 to 0.999	0.013	0.001 to 0.999	–	–	–	–	–	–	–
COC(=O)N[C@H](C(=O)N1C[C@@H](C#N)C[C@H]1c1ncc(-c2ccc3cc(-c4ccc(-c5cnc([C@@H]6CCCN6C(=O)[C@@H](c6ccccc6)N(C)C)[nH]5)cc4)ccc3c2)[nH]1)C(C)C [Example 137]	0.001 to 0.99	0.001 to 0.999	0.012	0.001 to 0.999	–	–	–	–	–	–	–
COC(=O)N[C@H](C(=O)N1CCC[C@H]1c1ncc(-c2ccc3c(c2)CCc2cc(-c4cnc([C@@H]5CCCN5C(=O)[C@H](NC(=O)OC)c5ccccc5)[nH]4)ccc2-3)[nH]1)C(C)C [Example 180]	0.001 to 0.99	0.001 to 0.999	0.007	0.001 to 0.999	–	–	–	–	–	–	–

Reference: patent publication US10344019B2 (priority 2010, dated 2019)
